Source: US20180244548A1, “USE OF COPPER-CARBON COMPOSITE NANOMATERIAL IN ALGAE CONTROL” (Suzhou Guanjie Nano Anti-bacteria Coating Technology Co., …, priority 2015, published 2018)
“And” between values parts separate entries of the source, which are not always exact repeats. Equal values may be shown once.

How the values were obtained:
[1] = tested on: scenedesmus (green algae), chlorella (green algae) and microcystis aeruginosa (blue algae); experiment: laboratory algae growth inhibition, α content of chlorophyll over time; type: cell-based; details: copper sulfate 6 ppm
[2] = tested on: scenedesmus, chlorella and microcystis aeruginosa cells; experiment: scanning electron microscope appearance observation of algae cells; type: cell-based; details: nanomaterial 6.25-50 ppm; activated carbon 50 ppm; copper oxide 50 ppm; copper sulfate 6 ppm

O=S(=O)([O-])[O-].[Cu+2] [copper sulfate]
inhibition time of algae growth [1]: 7 to 9 days and 7 days | appearance of algae cells in scanning electron micrographs [2]: completely changed
